The subject of this assay is human peripheral blood mononuclear cells. In words: inhibition of E. coli LPS-induced α TNF production in human peripheral blood mononuclear cells. The class given is cell-based. The following applies: product 10 μg/ml; for 50% inhibition LPS: LPS concentration at which α TNF production is 50% of control; for max. Inhibition LPS: LPS concentration corresponding to maximum inhibition. The procedure:
Mononuclear cells of peripheral blood are recovered from buffy coats of 6 healthy donors. Such buffy coat cells are resuspended and mononuclear cells are isolated by centrifugation on a Ficoll-Paque gradient (Amersham Pharmacia). Purified mononuclear cells are resuspended into RPMI-1640 medium supplemented with 10% FCS, antibiotics, mercaptoethanol and L-glutamine. Cell concentration is adjusted to 2×10^6 viable cells/ml.
Product mediated Inhibition is determined by preincubating those products with mononuclear cells, and adding, 1 hour later, serially diluted solutions of LPS capable of inducing α TFN production. […] E. coli LPS is serially diluted (10-fold dilution) to be in the range of 1 to 0.00001 μg/ml
50 μl of 10 μg/ml dilute product solutions in RPMI 1640 medium are dispensed into a microtiter plate. Each assay (10 μg/ml product concentration+dilute E. coli LPS) is run in triplicates and each microtiter plate includes a negative control comprised of plain medium. LPS-induced α TNF production (without inhibitor) is determined by adding E. coli LPS dilutions to RPMI medium.
100 μl of the cell suspension are added to each well containing dilutions of either product or control. Cells are incubated with the products for 1 hour in an incubator at 37° C., under 5% CO2 and a moisture saturated atmosphere.
At the end of the pre-incubation period, 50 μl of serially diluted solutions of E. coli LPS are added. Incubation of mononuclear cells with the product and LPS is extended for 18 hours. At the end of the cell activation period, the microtiter plates are centrifuged, and the supernatants are pooled and frozen at −80° C. as aliquots until time of ELISA assay.
Concentration of αTNF secreted by mononuclear cells is determined by chemiluminescent ELISA (QuantiGlo #QTAOO R&D kit). 4-fold dilutions of supernatant fluid are dispensed into each well of the microtiter plate to which anti-human αTNF antibodies are bound. The microtiter plate is incubated for 4 hours at room temperature. After washing, peroxidase-conjugated anti-human αTNF antibody is added. Following a 2 hour incubation period and a thorough washing, a chemiluminescent substrate is added and chemilunescence is read after 20 minutes. αTNF content in the supernatant fluid is determined with respect to a standard curve covering the 7000 to 0.7 pg/ml range.
Inhibition is characterized by the E. coli LPS concentration which elicits 50% production of α TNF during co-incubation in comparison to a control including only RPMI. This concentration increases as product inhibition activity becomes stronger. Knowing inhibition values of α TNF production, this concentration is given by calculating 100-(αTNF production induced by product and LPS)/(αTNF production induced by LPS alone)*100. From these inhibition data, concentration is determined by linear regression along the line segment which joins 2 LPS dilutions giving approx. 50% inhibition.
Product ability to inhibit α TNF production in mononuclear cells in response to LPS is further characterized by maximum inhibition. […] Results are calculated from a representative experience using all products.

SMILES strings stand for the structures.

On to `CCCCCCCCCCCC(=O)O[C@H](CCCCCCCCCCC)CC(=O)N[C@H](CC(=O)NCCCN)C(=O)NCCC[C@H](CO)NC(=O)C[C@H](O)CCCCCCCCCCC` [OM-197-AP, N—[(R)-3-dodecanoyloxytetradecanoyl]-D-aspartic acid, α-N-{(4R)-5-hydroxy-4-[(R)-3-hydroxy-tetradecanoylamino]pentyl}-amide β-N-(3-aminopropyl)amide], for which the “max. Inhibition” value turned out to be 100%, the “50% inhibition LPS” value was over 1 µg/mL and the “max. Inhibition LPS” value amounted to 0.016 µg/mL.

As to `CCCCCCCCCCCC(=O)O[C@H](CCCCCCCCCCC)CC(=O)N[C@H](CC(=O)O)C(=O)NCCC[C@H](COC(=O)CCCCCNC(=O)CCC(=O)O)NC(=O)C[C@H](O)CCCCCCCCCCC` [OM-197-MC-AC-Succ, N—[(R)-3-dodecanoyloxytetradecanoyl]-D-aspartic acid, α-N-{(4R)-5-(6-succinylamidohexanoxyloxy)-4[(R)-3-hydroxy-tetradecanoylamino]pentyl}amide], the “max. Inhibition” value is on record as 100%, the “50% inhibition LPS” value was over 1 µg/mL and the “max. Inhibition LPS” value is 0.044 µg/mL.

For `CCCCCCCCCCCC(=O)O[C@H](CCCCCCCCCCC)CC(=O)N[C@H](CC(=O)O)C(=O)NCCC[C@H](COC(=O)CCCCCN)NC(=O)C[C@H](O)CCCCCCCCCCC` [OM-197-MC-AC, N—[(R)-3-dodecanoyloxytetradecanoyl]-D-aspartic acid, α-N-{(4R)-5-(6-aminohexanoyloxy)-4-[(R)-3-hydroxytetradecanoylamino]pentyl}amide], the “max. Inhibition” value came to 100%, the “50% inhibition LPS” value is 0.88 µg/mL and the “max. Inhibition LPS” value was determined as 0.00003 µg/mL.

With `CCCCCCCCCCCC(=O)O[C@H](CCCCCCCCCCC)CC(=O)N[C@H](CC(=O)N[C@@H](CCCCN)C(=O)O)C(=O)NCCC[C@H](COC(=O)CCCCCN)NC(=O)C[C@H](O)CCCCCCCCCCC` [OM-197-Lys-AC], the “max. Inhibition” value was determined as 100%, the “50% inhibition LPS” value was over 1 µg/mL and the “max. Inhibition LPS” value was determined as 0.001 µg/mL.

With `CCCCCCCCCCCC(=O)O[C@H](CCCCCCCCCCC)CC(=O)N[C@H](CC(=O)O)C(=O)NCCC[C@H](COC(=O)CCCCC(O)CO)NC(=O)C[C@H](O)CCCCCCCCCCC` (stereo partly drawn) [OM-197-MC-FV5, N—[(R)-3-dodecanoyloxytetradecanoylamino]-D-aspartic acid, α-N-{(4R)-5-hydroxy-4-[(R)-3-hydroxytetra-decanoylamino]-pentyl}amide 5-O-(6,7-dihydroxyheptanoate)], the “max. Inhibition” value is 100%, the “50% inhibition LPS” value is over 1 µg/mL and the “max. Inhibition LPS” value amounted to 0.016 µg/mL.

With `CCCCCCCCCCCC(=O)O[C@H](CCCCCCCCCCC)CC(=O)N[C@@H](CCOP(=O)(O)O)C(=O)NCCC[C@H](COC(=O)CCCCCO)NC(=O)C[C@H](O)CCCCCCCCCCC` [OM-197-MP-AC (S, R), (3S,9R)-3-[(R)-3-dodecanoyloxytetradecanoylamino]-4-oxo-5-aza-9-[(R)-3-hydroxytetradecanoylamino]-1,10-diol 1-dihydrogenphosphate 10-(6-hydroxyhexanoate)], the “max. Inhibition” value is 100%, the “50% inhibition LPS” value was over 1 µg/mL and the “max. Inhibition LPS” value came to 0.00002 µg/mL.

Regarding `CCCCCCCCCCC[C@@H](O)CC(=O)N[C@H](CCCNC(=O)[C@@H](CC(=O)O)NC(C)=O)COC(=O)CCCCCN` [OM-197-N′C2-MC-AC, N-acetyl-D-aspartic acid, α-N-{(4R)-5-(6-aminohexanoyloxy)-4-[(R)-3-hydroxytetradecanoylamino]-pentyl}amide], the “max. Inhibition” value is listed as 100%, the “50% inhibition LPS” value was 0.0003 µg/mL and the “max. Inhibition LPS” value amounted to 0.00001 µg/mL.

Consider `CCCCCCCCCCCC(=O)O[C@H](CCCCCCCCCCC)CC(=O)N[C@H](CC(=O)N[C@@H](CCCCN)C(=O)O)C(=O)NCCC[C@H](CO)NC(=O)C[C@H](O)CCCCCCCCCCC` [OM-197-Lys], for which the “max. Inhibition” value was 100%, the “50% inhibition LPS” value was 0.70 µg/mL and the “max. Inhibition LPS” value stood at 0.0055 µg/mL.

With `CCCCCCCCCCCC(=O)O[C@H](CCCCCCCCCCC)CC(=O)NC(CCOP(=O)(O)O)C(=O)NCCC[C@H](COC(=O)CCCCCN)NC(=O)C[C@H](O)CCCCCCCCCCC` (mixture of isomers) [OM-197-MP-AC (R/S, R), (3RS,9R)-3-[(R)-3-dodecanoyloxytetradecanoylamino]-4oxo-5-aza-9-[(R)-3-hydroxytetradecanoylamino]-decan-10-ol 1-dihydrogen-phosphate(6-aminohexanoate)], the “max. Inhibition” value is reported as 100%, the “50% inhibition LPS” value is over 1 µg/mL and the “max. Inhibition LPS” value is 0.00002 µg/mL.

For the compound `CCCCCCCCCCCC(=O)O[C@H](CCCCCCCCCCC)CC(=O)N[C@H](CC(=O)N[C@@H](CC(=O)O)C(=O)O)C(=O)NCCC[C@H](CO)NC(=O)C[C@H](O)CCCCCCCCCCC` [OM-197-Asp, N—[(R)-3-dodecanoyloxytetradecanoyl]-D-aspartic acid, α-N-{(4R)-5-hydroxy-4-[(R)-3-hydroxytetradecanoylamino]-pentyl}Amide β-N-[(1S)-1,2-Dicarboxyethyl]Amide], the “max. Inhibition” value is listed as 100%, the “50% inhibition LPS” value is over 1 µg/mL and the “max. Inhibition LPS” value came out at 0.00036 µg/mL.

On to `CCCCCCCCCCCC(=O)O[C@H](CCCCCCCCCCC)CC(=O)N[C@H](CC(=O)O)C(=O)NCCC[C@H](COC(=O)CCC(=O)O)NC(=O)C[C@H](O)CCCCCCCCCCC` [OM-197-MC-Succ], for which the “max. Inhibition” value is 100%, the “50% inhibition LPS” value amounted to 1 µg/mL and the “max. Inhibition LPS” value amounted to 0.018 µg/mL.

With `CCCCCCCCCCCC(=O)O[C@H](CCCCCCCCCCC)CC(=O)N[C@H](CC(=O)O)C(=O)NCCC[C@H](COP(=O)(O)O)NC(=O)C[C@H](O)CCCCCCCCCCC` [OM-197-MC-MP, N—[(R)-3-dodecanoyloxytetradecanoyl]-D-aspartic acid, α-N-{(4R)-5-dihydroxyphosphoryloxy-4-[(R)-3-hydroxytetradecanoyl-amino]pentyl}amide], the “max. Inhibition” value is 100%, the “50% inhibition LPS” value is 0.19 µg/mL and the “max. Inhibition LPS” value was 0.001 µg/mL.

In the case of `CCCCCCCCCCCC(=O)O[C@H](CCCCCCCCCCC)CC(=O)N[C@H](CC(=O)O)C(=O)NCCC[C@H](COC(=O)CCCCCO)NC(=O)C[C@H](O)CCCCCCCCCCC` [OM-197-MC-FV7, N—[(R)-3-dodecanoyloxytetradecanoylamino]-D-aspartic acid, α-N-{(4R)-5-hydroxy-4-[(R)-3-hydroxytetradecanoylamino]pentyl}amide 5-O-(6-hydroxyhexanoate)], the “max. Inhibition” value is on record as 100%, the “50% inhibition LPS” value is over 1 µg/mL and the “max. Inhibition LPS” value amounted to 0.00035 µg/mL.

Consider `CCCCCCCCCCCC(=O)O[C@H](CCCCCCCCCCC)CC(=O)NC(CCOP(=O)(O)O)C(=O)NCCCC(COC(=O)CCCCCO)NC(=O)C[C@H](O)CCCCCCCCCCC` (stereo partly drawn) [OM-197-FV8, 3-[(R)-3-dodecanoyloxytetradecanoylamino]-4-oxo-5-aza-9-[(R)-3-hydroxytetradecanoylamino]-decan-1,10-diol 1-dihydrogenphosphate 10-(6-hydroxyhexanoate)], for which the “max. Inhibition” value is 100%, the “50% inhibition LPS” value is over 1 µg/mL and the “max. Inhibition LPS” value was 0.0033 µg/mL.

On to `CCCCCCCCCCCC(=O)O[C@H](CCCCCCCCCCC)CC(=O)N[C@H](CC(=O)N[C@@H](CC(=O)O)C(=O)O)C(=O)NCCC[C@H](COC(=O)CCCCCN)NC(=O)C[C@H](O)CCCCCCCCCCC` [OM-197-Asp-AC, N—[(R)-3-dodecanoyloxytetradecanoyl]-D-aspartic acid, α-N-{(4R)-5-(6-aminohexanoyloxy)-4-[(R)-3-hydroxytetradecanoyl-amino]-pentyl}amide β-N-[(1S)-1,2-dicarboxyethyl]Amide], for which the “max. Inhibition” value is on record as 100%, the “50% inhibition LPS” value stood at 0.29 µg/mL and the “max. Inhibition LPS” value amounted to 0.0058 µg/mL.

The record behind these values is US8173133B2, “Acyl pseudodipeptides which carry a functionalized auxiliary arm” (OM Pharma, priority 1999, dated 2012).
